Reference: ChEMBL document CHEMBL4354833, “Kinetic Target-Guided Synthesis: Reaching the Age of Maturity” (J Med Chem, 2020)
≈ marks a conversion by molar mass, not a printed value.

Legend:
[1] = biological target: Luciferin 4-monooxygenase (Photinus pyralis, UniProt P08659); assay: Inhibition of Photinus pyralis luciferase using ATP and D-luciferin in presence of Coenzyme A and DL-cysteine by luminescence based assay
[2] = biological target: T1, Signal transducer and activator of transcription 5B (Homo sapiens, UniProt P51692); assay: Binding affinity to MBP-tagged recombinant STAT5b-SH2 domain (unknown origin) using carboxyfluoresceine-labeled phosphotyrosine octapeptide incubated for 12 hrs by fluorescence polarization assay
T1 sequence (P51692 whole entry): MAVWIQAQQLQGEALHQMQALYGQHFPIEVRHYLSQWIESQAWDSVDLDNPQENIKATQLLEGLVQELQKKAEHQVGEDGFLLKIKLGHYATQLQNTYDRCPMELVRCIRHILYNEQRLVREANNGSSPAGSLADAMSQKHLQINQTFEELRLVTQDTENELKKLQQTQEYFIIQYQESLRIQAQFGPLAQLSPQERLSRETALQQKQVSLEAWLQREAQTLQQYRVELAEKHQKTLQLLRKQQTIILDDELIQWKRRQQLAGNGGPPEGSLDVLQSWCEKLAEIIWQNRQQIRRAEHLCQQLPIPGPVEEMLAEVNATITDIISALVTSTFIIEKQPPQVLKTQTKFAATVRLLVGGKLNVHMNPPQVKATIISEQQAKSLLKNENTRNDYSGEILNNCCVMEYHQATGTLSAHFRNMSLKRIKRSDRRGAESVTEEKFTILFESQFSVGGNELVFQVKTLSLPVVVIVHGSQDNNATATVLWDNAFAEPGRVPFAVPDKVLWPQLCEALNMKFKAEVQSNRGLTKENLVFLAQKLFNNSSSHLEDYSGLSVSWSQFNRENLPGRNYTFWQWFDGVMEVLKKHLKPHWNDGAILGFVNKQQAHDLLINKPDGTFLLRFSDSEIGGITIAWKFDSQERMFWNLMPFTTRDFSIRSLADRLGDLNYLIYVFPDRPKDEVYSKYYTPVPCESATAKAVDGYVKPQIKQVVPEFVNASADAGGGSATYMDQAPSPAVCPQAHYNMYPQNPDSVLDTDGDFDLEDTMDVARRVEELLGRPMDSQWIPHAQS

Streptococcus pneumoniae = assay: Antimicrobial activity against Streptococcus pneumoniae ATCC 49619; type: functional
[3] = biological target: Bacterial 70S ribosome (Bacteria) (UniProt P0A7V0+P60723+P0AG67+P0A7R5+P0A7R9+P0A7S3+P0A7S9+P0AG59+P0ADZ4+P0A7T3+P0AG63+P0A7T7+P0A7U3+P0A7U7+P68679+P0A7V3+P0A7V8+P0A7W1+P02358+P02359+P0A7W7+P0A7X3+P0A7J3+P0A7J7+P0AA10+P0ADY3+P02413+P0ADY7+P0AG44+P0C018+P0A7K6+P0A7L0+P0A7L3+P0AG48+P61175+P0ADZ0+P60624+P68919+P0A7L8+P0A7M2+P0A7M6+P60422+P0AG51+P0A7N1+P0A7M9+P0A7N4+P0A7N9+P0A7P5+P0A7Q1+Q2EEQ2+P0A7Q6+P60438+P62399+P0AG55+P0A7K2); assay: Inhibition of 70S ribosome in Escherichia coli cell free system assessed as reduction in protein synthesis by measuring EmGFP synthesis at 1 uM by cell-free translation inhibition method relative to control; type: subcellular
Bacterial 70S ribosome = assay: Binding affinity to Escherichia coli 70S ribosome assessed as reduction in BODIPY-Erythromycin A binding incubated for 1 hr by fluorescence polarization assay; type: subcellular
[4] = Antitumor activity against mouse BaF3/FLT3-ITD cells implanted in NSG mouse assessed as induction of tumor growth regression at 200 mg/kg, sc QD for 14 days relative to control; type: functional
[5] = biological target: T2, Signal transducer and activator of transcription 5B (Mus musculus) (UniProt P42232); assay: Inhibition of STAT5b phosphorylation in mouse BaF3/FLT3-ITD cells at 25 uM after 6 hrs by Western blot analysis relative to control; type: cell-based
T2 sequence (whole entry): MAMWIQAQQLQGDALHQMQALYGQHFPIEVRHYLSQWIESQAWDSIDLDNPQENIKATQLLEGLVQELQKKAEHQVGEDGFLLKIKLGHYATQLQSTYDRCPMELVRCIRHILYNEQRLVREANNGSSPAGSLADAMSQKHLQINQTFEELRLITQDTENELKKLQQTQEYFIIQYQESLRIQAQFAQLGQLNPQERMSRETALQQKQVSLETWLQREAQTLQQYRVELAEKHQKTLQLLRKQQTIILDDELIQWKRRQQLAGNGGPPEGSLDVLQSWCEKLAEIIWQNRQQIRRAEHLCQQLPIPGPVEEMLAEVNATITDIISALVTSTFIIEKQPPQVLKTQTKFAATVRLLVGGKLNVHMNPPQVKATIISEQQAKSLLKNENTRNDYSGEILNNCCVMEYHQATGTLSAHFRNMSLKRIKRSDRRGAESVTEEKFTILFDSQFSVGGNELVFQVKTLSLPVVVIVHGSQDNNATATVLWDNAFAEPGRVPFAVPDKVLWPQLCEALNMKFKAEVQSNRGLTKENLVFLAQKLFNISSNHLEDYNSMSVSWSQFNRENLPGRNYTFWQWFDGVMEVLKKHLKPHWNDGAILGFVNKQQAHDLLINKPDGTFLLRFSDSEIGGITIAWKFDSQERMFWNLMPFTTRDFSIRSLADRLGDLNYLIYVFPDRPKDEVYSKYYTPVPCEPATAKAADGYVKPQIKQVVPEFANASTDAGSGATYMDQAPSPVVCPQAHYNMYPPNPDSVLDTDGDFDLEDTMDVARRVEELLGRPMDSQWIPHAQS

[6] = biological target: T3, Signal transducer and activator of transcription 5B (Homo sapiens) (UniProt P51692); assay: Binding affinity to MBP-tagged recombinant STAT5b-SH2 domain (unknown origin) assessed as change in melting temperature by CETSA method
T3 sequence (whole entry): T1 sequence (P51692 whole entry)

[7] = biological target: T2, Signal transducer and activator of transcription 5B (Mus musculus); assay: Inhibition of STAT5b in mouse BaF3/FLT3-ITD cells incubated for 6 hrs by CETSA-ITDRF assay; type: cell-based
Prothrombin = Prothrombin (Homo sapiens, UniProt P00734); assay: Inhibition of thrombin (unknown origin)
[8] = Inhibition of Enterovirus A71 3c protease
NAD kinase 1 = biological target: T4, NAD kinase 1 (Listeria monocytogenes serovar 1/2a (strain ATCC BAA-679 / EGD-e), UniProt Q8Y8D7); assay: Inhibition of Listeria monocytogenes NAD kinase assessed as suppression of reduced NADP formation by yeast glucose-6-phosphate dehydrogenase coupled assay
T4 sequence (Q8Y8D7 whole entry): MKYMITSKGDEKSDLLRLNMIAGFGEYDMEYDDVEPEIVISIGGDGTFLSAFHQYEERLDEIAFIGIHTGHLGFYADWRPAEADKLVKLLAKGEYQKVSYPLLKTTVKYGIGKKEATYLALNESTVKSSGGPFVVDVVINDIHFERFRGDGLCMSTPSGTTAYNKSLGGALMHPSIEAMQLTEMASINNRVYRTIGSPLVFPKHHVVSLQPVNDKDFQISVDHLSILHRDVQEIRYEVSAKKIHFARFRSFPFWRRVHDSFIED

[9] = biological target: T5, Bifunctional ligase/repressor BirA (Staphylococcus aureus, UniProt A0A0E7NXW5); assay: Binding affinity to Staphylococcus aureus biotin protein ligase
T5 sequence (A0A0E7NXW5 whole entry): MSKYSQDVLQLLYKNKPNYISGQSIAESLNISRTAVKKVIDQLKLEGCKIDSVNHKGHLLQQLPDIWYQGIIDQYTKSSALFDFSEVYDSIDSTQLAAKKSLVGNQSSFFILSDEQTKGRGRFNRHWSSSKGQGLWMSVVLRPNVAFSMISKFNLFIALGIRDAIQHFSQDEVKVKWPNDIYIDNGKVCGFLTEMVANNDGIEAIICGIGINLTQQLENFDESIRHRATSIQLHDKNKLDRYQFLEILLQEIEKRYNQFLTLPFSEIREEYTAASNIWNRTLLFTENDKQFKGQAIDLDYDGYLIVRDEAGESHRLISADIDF

[10] = biological target: T6, Prostaglandin G/H synthase 2 (Homo sapiens, UniProt P35354); assay: Binding affinity to human COX2
T6 sequence (P35354 whole entry): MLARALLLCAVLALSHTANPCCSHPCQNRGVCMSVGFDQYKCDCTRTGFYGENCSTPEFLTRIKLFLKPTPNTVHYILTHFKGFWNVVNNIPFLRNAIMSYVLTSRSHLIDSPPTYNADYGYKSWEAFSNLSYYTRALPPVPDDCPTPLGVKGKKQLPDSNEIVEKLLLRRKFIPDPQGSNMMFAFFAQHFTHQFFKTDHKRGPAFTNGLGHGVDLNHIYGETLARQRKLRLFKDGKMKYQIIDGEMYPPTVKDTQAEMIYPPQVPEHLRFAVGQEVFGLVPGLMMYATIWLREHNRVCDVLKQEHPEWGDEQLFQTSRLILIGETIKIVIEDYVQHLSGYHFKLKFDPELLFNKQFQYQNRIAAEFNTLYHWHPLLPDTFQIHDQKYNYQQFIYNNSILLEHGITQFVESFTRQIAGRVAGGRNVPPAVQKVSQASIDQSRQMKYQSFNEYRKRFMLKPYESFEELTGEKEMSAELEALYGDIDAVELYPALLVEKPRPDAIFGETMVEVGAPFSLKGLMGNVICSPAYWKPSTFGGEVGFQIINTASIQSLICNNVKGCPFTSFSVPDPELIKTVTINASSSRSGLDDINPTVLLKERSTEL

Rattus norvegicus = species: Rattus norvegicus; assay: animal or person; settings: 3 h
Description: Antiinflammatory activity in rat model of carrageenan-induced paw edema model after 3 hrs

[11] = Biodistribution in plasma of SCID mouse measured after 10 mins; type: ADME, organism-based; settings: in vivo
[12] = Biodistribution in RBC of SCID mouse measured after 10 mins; type: ADME, organism-based; settings: erythrocyte
Carbonic anhydrase 2 = Carbonic anhydrase 2 (Bos taurus, UniProt P00921); assay: Binding affinity to bovine carbonic anhydrase 2
Sequence of Carbonic anhydrase 2 (P00921 whole entry): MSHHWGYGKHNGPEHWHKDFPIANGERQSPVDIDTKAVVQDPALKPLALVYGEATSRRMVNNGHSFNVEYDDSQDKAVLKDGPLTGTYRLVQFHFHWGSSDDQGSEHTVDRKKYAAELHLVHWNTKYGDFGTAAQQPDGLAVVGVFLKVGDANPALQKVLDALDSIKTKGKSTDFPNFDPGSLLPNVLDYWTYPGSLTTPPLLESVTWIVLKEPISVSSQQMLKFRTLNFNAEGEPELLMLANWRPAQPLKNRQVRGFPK

Coagulation factor X = Coagulation factor X (Homo sapiens, UniProt P00742); assay: Inhibition human FA10a using Boc-LeuGly-Arg-AMC fluorogenic substrate
Sequence of Coagulation factor X (P00742 41-179 limits assumed): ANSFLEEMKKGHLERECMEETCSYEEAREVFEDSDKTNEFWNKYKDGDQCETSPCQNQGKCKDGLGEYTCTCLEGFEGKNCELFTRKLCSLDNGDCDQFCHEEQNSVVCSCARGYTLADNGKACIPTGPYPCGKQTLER
Sequence of Coagulation factor X (P00742 235-488 limits assumed): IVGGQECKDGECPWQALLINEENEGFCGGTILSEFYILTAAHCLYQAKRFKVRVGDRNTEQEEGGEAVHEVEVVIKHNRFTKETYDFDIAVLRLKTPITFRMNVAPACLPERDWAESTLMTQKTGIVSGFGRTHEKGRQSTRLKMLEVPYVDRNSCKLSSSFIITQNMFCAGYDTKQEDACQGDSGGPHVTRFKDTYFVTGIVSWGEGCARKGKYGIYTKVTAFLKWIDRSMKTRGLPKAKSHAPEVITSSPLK

Sequence of Luciferin 4-monooxygenase (P08659 whole entry, the tested form may be a part): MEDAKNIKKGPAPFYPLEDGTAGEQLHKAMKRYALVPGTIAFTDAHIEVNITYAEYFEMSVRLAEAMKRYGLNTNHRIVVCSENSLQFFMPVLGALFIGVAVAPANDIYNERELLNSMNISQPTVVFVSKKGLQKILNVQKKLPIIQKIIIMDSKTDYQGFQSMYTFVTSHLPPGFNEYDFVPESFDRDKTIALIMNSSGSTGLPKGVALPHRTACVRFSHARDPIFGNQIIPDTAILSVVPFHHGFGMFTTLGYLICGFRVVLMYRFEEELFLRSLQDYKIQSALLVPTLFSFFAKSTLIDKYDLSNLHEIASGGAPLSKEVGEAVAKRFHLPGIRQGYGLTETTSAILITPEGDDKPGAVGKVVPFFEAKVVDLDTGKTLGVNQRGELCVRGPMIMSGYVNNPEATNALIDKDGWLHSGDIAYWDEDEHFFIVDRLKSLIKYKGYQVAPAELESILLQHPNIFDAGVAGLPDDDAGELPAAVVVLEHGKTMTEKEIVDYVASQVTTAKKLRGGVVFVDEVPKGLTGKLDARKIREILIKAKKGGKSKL

Nc1ncnc2c1ncn2[C@H]1O[C@@H](COP(=O)(O)OC(=O)c2cccc(-c3noc(-c4ccccc4F)n3)c2)[C@H](O)[C@@H]1O
IC50 [1]: 0.01 µM

COC(=O)c1nonc1NCn1nnnc1-c1cccc(OC(F)(F)F)c1
Ki [2]: > 5000 µM

CC[C@H]1OC(=O)[C@@](C)(F)C(=O)[C@H](C)[C@@H](O[C@@H]2O[C@H](C)C[C@H](N(C)C)[C@H]2O)[C@](C)(OC)C[C@@H](C)C(=O)[C@H](C)[C@H]2N(CCCCn3cc(-c4cccc(N)c4)nn3)C(=O)O[C@]12C [SOLITHROMYCIN]
MIC (Streptococcus pneumoniae): 6 ng/mL (≈ 7.1 nM)
inhibition [3]: 47%
Kd (Bacterial 70S ribosome): 0.0006 µM

O=C(O)c1nonc1NCn1nnnc1Cc1ccccc1
IC50 [2]: 2.9 µM
Activity [4]: 28%
inhibition [5]: > 50%

O=C(O)c1nonc1NCn1cnnn1
ΔTm [6]: 8 °C
Occ50 [7]: 28 µM
IC50 [2]: 1.4 µM

N=C(N)c1ccc(NC(C(=O)NCc2ccccc2)c2ccccc2)cc1 (stereo not given)
Ki (Prothrombin): 0.05 µM

O=C(O)c1nonc1NCn1nnnc1-c1cccc(C(F)(F)F)c1
Ki [2]: > 5000 µM

CCOC(=O)/C=C/[C@H](C[C@@H]1CCCNC1=O)NC(=O)[C@H](Cc1ccccc1)NC(=O)C=O
IC50 [8]: 16.4 µM

CCOC(=O)CC[C@H](C[C@@H]1CCCNC1=O)NC(=O)[C@H](Cc1ccccc1)NC(=O)C(O)CC(=O)c1ccncc1 (stereo not given in full)
IC50 [8]: 1.43 µM

Nc1nonc1C(=O)O
Ki [2]: 420 µM

[N-]=[N+]=NC[C@H]1O[C@@H](n2c(SCC(=O)NC[C@H]3O[C@@H](n4cnc5c(N)ncnc54)[C@H](O)[C@@H]3O)nc3c(N)ncnc32)[C@H](O)[C@@H]1O
Ki (NAD kinase 1): 25 µM

O=C(O)c1nonc1NCn1nnnc1-c1ccc(F)cc1
Ki [2]: 0.6 µM

CC[C@H]1OC(=O)[C@@](C)(F)C(=O)[C@H](C)[C@@H](O[C@@H]2O[C@H](C)C[C@H](N(C)C)[C@H]2O)[C@](C)(OC)C[C@@H](C)C(=O)[C@H](C)[C@H]2N(CCCCn3cc(-c4cccc(N(C)C)c4)nn3)C(=O)O[C@]12C
MIC (Streptococcus pneumoniae): 5 ng/mL (≈ 5.73 nM)
inhibition [3]: 37%
Kd (Bacterial 70S ribosome): 0.0014 µM

O=C(O)c1nonc1NCn1cncn1
Ki [2]: > 5000 µM

O=C1N[C@H]2[C@H](CS[C@H]2CCCCc2cn(CCCNc3ccc([N+](=O)[O-])c4nonc34)nn2)N1
Ki [9]: 1.4 µM

Cc1cnc(Cn2cc(-c3onc(-c4ccccc4)c3-c3ccc(S(N)(=O)=O)cc3)nn2)c(C)c1[18F]
Kd [10]: 0.01 µM

Cc1cc(-n2cc(-c3ccc(F)cc3)nn2)n(-c2ccc(S(C)(=O)=O)cc2)n1
ED50 (Rattus norvegicus): 0.44 mg/kg

CC[C@H]1OC(=O)[C@@](C)(F)C(=O)[C@H](C)[C@@H](O[C@@H]2O[C@H](C)C[C@H](N(C)C)[C@H]2O)[C@](C)(OC)C[C@@H](C)C(=O)[C@H](C)[C@H]2N(CCCCN=[N+]=[N-])C(=O)O[C@]12C
MIC (Streptococcus pneumoniae): 2 ng/mL (≈ 2.75 nM)
Kd (Bacterial 70S ribosome): 0.0021 µM

O=C(O)c1nonc1NCn1nnnc1-c1cccc(F)c1
Ki [2]: > 5000 µM

O=C(O)c1nonc1NCn1nnnc1-c1ccccc1
Ki [2]: > 5000 µM

O=C(O)c1nonc1NCn1cccn1
Ki [2]: > 5000 µM

O=C(O)c1nonc1NCn1ccnn1
Ki [2]: > 5000 µM

Cc1cc(-n2cc(-c3ccc(N)cc3)nn2)n(-c2ccc(S(C)(=O)=O)cc2)n1
ED50 (Rattus norvegicus): 0.12 mg/kg

Cc1cc(C(=O)N[C@@H](Cc2ccc(F)cc2)C(=O)N[C@H](C=O)C[C@@H]2CCCNC2=O)no1
IC50 [8]: 0.32 µM

O=C[C@H](C[C@@H]1CCCNC1=O)NC(=O)[C@H](Cc1ccccc1)NC(=O)C(O)CC(=O)c1ccncc1 (stereo not given in full)
IC50 [8]: 0.15 µM

CC(C)[C@H](C(=O)NCc1cc([18F])ccn1)n1cc(-c2ccc(S(N)(=O)=O)cc2)nn1
Drug uptake [11]: 10%
Drug uptake [12]: 90%
Kd (Carbonic anhydrase 2): 0.0005 µM

O=C(O)c1nonc1NCn1nnc2ccccc21
Ki [2]: > 5000 µM

COC(=O)c1nonc1NCn1cnnn1
IC50 [2]: 37 µM

N=C(N)c1ccc(CN)cc1
Ki (Coagulation factor X): 680 µM
